Legend:
CREB-binding protein [1] = molecular target: T1, CREB-binding protein (Homo sapiens, UniProt Q92793); test: Induction of CBP degradation in human RS4-11 cells assessed as maximal degradation incubated for 4 hrs by Western blot assay; type: cell-based
Target sequence in this assay (Q92793 2-2442 limits assumed): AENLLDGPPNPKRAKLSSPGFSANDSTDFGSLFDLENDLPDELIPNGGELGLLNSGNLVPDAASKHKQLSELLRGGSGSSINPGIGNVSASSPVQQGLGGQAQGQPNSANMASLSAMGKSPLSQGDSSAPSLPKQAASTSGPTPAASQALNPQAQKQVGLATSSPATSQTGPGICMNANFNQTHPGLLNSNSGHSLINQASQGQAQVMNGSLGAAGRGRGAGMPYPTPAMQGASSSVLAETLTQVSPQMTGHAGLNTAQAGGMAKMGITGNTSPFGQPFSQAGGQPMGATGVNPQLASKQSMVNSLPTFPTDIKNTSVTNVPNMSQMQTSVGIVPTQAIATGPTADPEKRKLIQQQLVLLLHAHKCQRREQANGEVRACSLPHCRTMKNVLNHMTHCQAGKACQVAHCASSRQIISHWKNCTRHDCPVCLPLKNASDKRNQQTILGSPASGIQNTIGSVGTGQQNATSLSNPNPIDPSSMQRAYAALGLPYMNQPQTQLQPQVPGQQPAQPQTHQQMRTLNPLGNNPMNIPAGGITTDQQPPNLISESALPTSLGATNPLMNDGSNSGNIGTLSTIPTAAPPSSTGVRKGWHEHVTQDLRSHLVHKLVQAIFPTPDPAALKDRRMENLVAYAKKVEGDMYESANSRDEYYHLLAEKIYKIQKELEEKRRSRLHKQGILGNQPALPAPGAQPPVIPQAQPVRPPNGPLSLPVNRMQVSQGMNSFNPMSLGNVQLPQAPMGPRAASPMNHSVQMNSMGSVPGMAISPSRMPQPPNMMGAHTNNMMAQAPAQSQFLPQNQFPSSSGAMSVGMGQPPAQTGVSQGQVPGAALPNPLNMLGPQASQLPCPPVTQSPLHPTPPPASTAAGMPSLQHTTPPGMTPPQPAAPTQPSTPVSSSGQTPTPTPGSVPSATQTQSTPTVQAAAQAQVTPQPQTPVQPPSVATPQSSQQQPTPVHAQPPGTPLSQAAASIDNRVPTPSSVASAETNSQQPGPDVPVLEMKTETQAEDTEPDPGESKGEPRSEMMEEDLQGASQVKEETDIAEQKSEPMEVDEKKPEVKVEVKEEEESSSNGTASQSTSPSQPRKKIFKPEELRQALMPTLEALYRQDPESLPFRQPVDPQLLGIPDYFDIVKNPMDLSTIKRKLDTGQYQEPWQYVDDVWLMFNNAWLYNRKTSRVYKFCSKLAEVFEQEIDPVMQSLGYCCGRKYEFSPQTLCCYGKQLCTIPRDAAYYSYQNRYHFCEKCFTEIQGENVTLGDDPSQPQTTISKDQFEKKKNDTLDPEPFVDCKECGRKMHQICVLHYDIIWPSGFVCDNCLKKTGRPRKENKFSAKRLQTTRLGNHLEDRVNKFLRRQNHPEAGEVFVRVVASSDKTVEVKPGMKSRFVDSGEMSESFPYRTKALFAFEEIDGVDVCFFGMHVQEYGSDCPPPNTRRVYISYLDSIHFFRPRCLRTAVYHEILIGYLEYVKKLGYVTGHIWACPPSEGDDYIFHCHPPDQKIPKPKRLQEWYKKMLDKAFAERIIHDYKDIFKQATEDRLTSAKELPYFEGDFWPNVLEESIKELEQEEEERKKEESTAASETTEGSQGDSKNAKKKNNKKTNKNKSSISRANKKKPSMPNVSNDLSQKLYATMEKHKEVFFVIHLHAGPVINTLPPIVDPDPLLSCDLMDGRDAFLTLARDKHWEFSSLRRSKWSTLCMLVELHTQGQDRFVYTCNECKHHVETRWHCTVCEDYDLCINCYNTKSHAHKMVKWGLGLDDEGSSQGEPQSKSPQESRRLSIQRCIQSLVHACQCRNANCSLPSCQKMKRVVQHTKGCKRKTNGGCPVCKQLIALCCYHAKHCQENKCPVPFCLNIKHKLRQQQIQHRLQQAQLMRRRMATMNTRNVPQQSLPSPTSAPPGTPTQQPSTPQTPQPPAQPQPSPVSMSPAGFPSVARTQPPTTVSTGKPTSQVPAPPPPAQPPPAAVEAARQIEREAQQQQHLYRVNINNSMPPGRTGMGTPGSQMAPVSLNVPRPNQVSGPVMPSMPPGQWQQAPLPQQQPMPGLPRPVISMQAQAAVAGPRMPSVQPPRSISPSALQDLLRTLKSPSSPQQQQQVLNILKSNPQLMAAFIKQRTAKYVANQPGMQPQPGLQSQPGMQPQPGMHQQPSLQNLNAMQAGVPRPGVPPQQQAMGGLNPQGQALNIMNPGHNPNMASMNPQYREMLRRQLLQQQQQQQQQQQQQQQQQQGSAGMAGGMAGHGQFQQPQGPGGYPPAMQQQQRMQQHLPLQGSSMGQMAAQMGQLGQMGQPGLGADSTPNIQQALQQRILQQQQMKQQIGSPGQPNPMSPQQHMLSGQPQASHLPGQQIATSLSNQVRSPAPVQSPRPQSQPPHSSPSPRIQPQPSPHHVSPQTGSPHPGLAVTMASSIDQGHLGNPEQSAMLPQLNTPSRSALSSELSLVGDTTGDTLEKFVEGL

[2] = molecular target: T2, Histone acetyltransferase p300 (Homo sapiens, UniProt Q09472); test: Induction of p300 degradation in human RS4-11 cells assessed as maximal degradation incubated for 4 hrs by Western blot assay relative to control; type: cell-based
RS4-11 [3] = test: Cytotoxicity against human RS4-11 cells assessed as maximum inhibition of cell growth incubated for 4 days by cellTiter-Glo assay relative to control; type: functional; conditions: time 4 day
RS4-11 [4] = test: Cytotoxicity against human RS4-11 cells assessed as inhibition of cell growth incubated for 4 days by cellTiter-Glo assay; type: functional, cell-based; conditions: RS4-11, 96 h
CREB-binding protein [5] = molecular target: T1, CREB-binding protein; test: Induction of CBP degradation in human RS4-11 cells incubated for 4 hrs by Western blot assay; type: cell-based
[6] = molecular target: T2, Histone acetyltransferase p300; test: Induction of p300 degradation in human RS4-11 cells incubated for 4 hrs by Western blot assay; type: cell-based; conditions: for DC50: rs4-11

T2 sequence (Q09472 whole entry): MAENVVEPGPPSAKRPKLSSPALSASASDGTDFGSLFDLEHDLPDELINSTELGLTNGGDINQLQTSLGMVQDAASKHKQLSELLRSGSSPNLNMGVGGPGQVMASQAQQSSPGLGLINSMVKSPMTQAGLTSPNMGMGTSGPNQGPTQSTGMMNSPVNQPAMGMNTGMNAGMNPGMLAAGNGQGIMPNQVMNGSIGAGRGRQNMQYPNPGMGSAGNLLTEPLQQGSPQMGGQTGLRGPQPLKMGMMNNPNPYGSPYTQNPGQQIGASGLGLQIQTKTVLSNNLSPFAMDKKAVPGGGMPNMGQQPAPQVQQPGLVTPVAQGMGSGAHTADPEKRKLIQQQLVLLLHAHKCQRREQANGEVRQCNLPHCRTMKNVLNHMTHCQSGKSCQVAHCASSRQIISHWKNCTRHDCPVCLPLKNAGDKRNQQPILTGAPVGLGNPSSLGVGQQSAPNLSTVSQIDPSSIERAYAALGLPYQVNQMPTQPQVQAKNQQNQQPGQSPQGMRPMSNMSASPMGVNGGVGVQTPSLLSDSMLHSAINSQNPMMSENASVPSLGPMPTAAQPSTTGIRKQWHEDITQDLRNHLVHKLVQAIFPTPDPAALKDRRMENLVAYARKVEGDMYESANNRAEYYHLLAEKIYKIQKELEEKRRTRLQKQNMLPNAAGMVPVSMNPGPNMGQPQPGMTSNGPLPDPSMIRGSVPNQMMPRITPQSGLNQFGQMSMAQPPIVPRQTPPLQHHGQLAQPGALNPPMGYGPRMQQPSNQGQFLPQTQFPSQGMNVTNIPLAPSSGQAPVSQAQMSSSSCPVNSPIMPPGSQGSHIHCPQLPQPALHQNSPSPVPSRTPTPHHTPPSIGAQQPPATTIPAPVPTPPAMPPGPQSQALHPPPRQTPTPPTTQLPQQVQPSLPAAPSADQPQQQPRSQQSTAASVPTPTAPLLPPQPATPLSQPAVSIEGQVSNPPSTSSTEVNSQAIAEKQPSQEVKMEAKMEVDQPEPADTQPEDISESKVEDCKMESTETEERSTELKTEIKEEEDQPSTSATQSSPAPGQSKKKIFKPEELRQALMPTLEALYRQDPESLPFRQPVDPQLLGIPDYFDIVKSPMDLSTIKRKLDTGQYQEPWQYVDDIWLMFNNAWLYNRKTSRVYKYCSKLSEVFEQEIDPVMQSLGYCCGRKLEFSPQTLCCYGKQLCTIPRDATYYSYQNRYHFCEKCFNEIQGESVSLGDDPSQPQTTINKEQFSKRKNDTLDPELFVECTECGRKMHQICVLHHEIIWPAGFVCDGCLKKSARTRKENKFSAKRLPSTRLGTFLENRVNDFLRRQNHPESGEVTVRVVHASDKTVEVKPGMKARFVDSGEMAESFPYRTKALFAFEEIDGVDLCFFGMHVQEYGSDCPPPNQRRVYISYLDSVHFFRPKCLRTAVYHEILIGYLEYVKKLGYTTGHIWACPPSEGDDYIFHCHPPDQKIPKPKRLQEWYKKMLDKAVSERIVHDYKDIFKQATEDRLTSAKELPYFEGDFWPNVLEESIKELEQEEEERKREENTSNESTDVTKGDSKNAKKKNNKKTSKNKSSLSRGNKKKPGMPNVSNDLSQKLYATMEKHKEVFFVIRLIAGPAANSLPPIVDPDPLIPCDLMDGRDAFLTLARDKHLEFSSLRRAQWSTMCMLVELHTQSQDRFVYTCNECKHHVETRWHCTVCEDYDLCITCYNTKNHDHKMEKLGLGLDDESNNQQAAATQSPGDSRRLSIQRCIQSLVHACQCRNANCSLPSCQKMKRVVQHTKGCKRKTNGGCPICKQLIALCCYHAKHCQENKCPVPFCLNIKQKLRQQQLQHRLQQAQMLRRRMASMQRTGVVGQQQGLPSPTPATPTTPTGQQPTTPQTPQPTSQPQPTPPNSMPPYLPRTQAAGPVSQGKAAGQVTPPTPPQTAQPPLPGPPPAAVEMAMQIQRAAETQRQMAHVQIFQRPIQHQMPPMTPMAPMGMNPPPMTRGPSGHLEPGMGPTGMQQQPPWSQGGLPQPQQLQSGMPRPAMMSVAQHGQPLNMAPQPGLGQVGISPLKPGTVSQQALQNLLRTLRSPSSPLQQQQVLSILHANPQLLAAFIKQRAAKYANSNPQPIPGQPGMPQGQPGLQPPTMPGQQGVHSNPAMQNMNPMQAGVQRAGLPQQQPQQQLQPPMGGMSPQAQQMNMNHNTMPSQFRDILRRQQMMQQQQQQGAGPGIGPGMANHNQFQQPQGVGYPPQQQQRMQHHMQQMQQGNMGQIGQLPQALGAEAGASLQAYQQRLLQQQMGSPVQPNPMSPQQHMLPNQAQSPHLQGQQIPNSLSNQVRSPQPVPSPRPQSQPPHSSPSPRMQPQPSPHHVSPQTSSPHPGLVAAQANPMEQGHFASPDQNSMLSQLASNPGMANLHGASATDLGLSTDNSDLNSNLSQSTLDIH

Compound	Emax (CREB-binding protein [1])	Emax [2]	EC50 (CREB-binding protein [5])	DC50 [6]	EC50 [6]	Imax (RS4-11 [3])	IC50 (RS4-11 [4])
CC(=O)N1CCc2c(c(-c3cccc4cc(-c5ccc(C(=O)N6CCC7(CCC(Nc8cccc9c8C(=O)N(C8CCC(=O)NC8=O)C9=O)CC7)CC6)nc5)ncc34)nn2C2CCOCC2)C1 (stereo not given)	21%	10%	–	–	–	65%	70 nM
CC(=O)N1CCc2c(c(-c3cccc4cc(-c5ccc(C(=O)NCCCCCc6cccc7c6CN(C6CCC(=O)NC6=O)C7=O)nc5)ncc34)nn2C2CCOCC2)C1 (stereo not given)	99%	99%	0.2 nM	0.1 nM	–	>95%	0.2 nM
CC(=O)N1CCc2c(c(-c3cccc4cc(-c5ccc(C(=O)NCCCCCNc6cccc7c6C(=O)N(C6CCC(=O)NC6=O)C7=O)nc5)ncc34)nn2C2CCOCC2)C1 (stereo not given)	92%	95%	1 nM	–	0.3 nM	>95%	2.2 nM
CC(=O)N1CCc2c(c(-c3cccc4cc(-c5ccc(C(=O)NCCNc6ccc7c(c6)CN(C6CCC(=O)NC6=O)C7=O)nc5)ncc34)nn2C2CCOCC2)C1 (stereo not given)	80%	73%	1.1 nM	5.1 nM	–	>95%	0.1 nM
C[C@H](N(Cc1ccc(F)cc1)C(=O)CN1C(=O)O[C@@]2(CCc3cc(NC(=O)CCCCCCCCCCCNc4ccc5c(c4)C(=O)N(C4CCC(=O)NC4=O)C5=O)ccc32)C1=O)C(F)(F)F (stereo not given in full)	–	–	–	–	–	99%	91 nM
CC(=O)N1CCc2c(c(-c3cccc4cc(-c5ccc(C(=O)NCCCNc6cccc7c6C(=O)N(C6CCC(=O)NC6=O)C7=O)nc5)ncc34)nn2C2CCOCC2)C1 (stereo not given)	71%	90%	1.2 nM	–	0.7 nM	>95%	0.1 nM
CNC(=O)N1CCc2c(c(N3CCCc4cc(-c5cnn(C)c5)c(C(F)F)cc43)nn2C2CCN(C(=O)CCOCCOCCOCCOCCNc3ccc4c(c3)C(=O)N(C3CCC(=O)NC3=O)C4=O)CC2)C1 (stereo not given)	–	–	–	–	–	89%	4.8 nM
CC(=O)N1CCc2c(c(-c3cccc4cc(-c5ccc(C(=O)NCCCc6cccc7c6CN(C6CCC(=O)NC6=O)C7=O)nc5)ncc34)nn2C2CCOCC2)C1 (stereo not given)	95%	99%	3.3 nM	0.3 nM	–	95%	0.5 nM
CC(=O)N1CCc2c(c(-c3cccc4cc(-c5ccc(C(=O)N6CC7(CC(Nc8cccc9c8C(=O)N(C8CCC(=O)NC8=O)C9=O)C7)C6)nc5)ncc34)nn2C2CCOCC2)C1 (stereo not given)	99%	95%	0.3 nM	–	1.1 nM	85%	11 nM
CC(=O)N1CCc2c(c(-c3cccc4cc(-c5ccc(C(=O)NCCCCc6cccc7c6CN(C6CCC(=O)NC6=O)C7=O)nc5)ncc34)nn2C2CCOCC2)C1 (stereo not given)	80%	99%	0.2 nM	< 0.1 nM	–	>95%	0.1 nM
CC(=O)N1CCc2c(c(-c3cccc4cc(-c5ccc(C(=O)NC6CCN(c7ccc8c(c7)C(=O)N(C7CCC(=O)NC7=O)C8=O)CC6)nc5)ncc34)nn2C2CCOCC2)C1 (stereo not given)	99%	99%	1 nM	–	1.9 nM	83%	20 nM
CC(=O)N1CCc2c(c(-c3cccc4cc(-c5ccc(C(=O)NCCCNc6ccc7c(c6)CN(C6CCC(=O)NC6=O)C7=O)nc5)ncc34)nn2C2CCOCC2)C1 (stereo not given)	99%	99%	< 0.1 nM	0.3 nM	–	>95%	0.1 nM
CC(=O)N1CCc2c(c(-c3cccc4cc(-c5ccc(C(=O)N6CCC7(CC6)CC(Nc6cccc8c6C(=O)N(C6CCC(=O)NC6=O)C8=O)C7)nc5)ncc34)nn2C2CCOCC2)C1 (stereo not given)	96%	51%	1.7 nM	–	9.3 nM	71%	51 nM

The remaining molecules from weak to strong by EC50 (CREB-binding protein [5]), led by results:

Emax (CREB-binding protein [1])	Emax [2]	EC50 (CREB-binding protein [5])	DC50 [6]	EC50 [6]	Compound	Imax (RS4-11 [3])	IC50 (RS4-11 [4])
58%	10%	40 nM	–	–	CC(=O)N1CCc2c(c(-c3cccc4cc(-c5ccc(C(=O)N6CCC(C7CCN(c8cccc9c8C(=O)N(C8CCC(=O)NC8=O)C9=O)CC7)CC6)nc5)ncc34)nn2C2CCOCC2)C1 (stereo not given)	88%	24 nM
99%	87%	12 nM	–	2.3 nM	CC(=O)N1CCc2c(c(-c3cccc4cc(-c5ccc(C(=O)NCCCCCCCNc6cccc7c6C(=O)N(C6CCC(=O)NC6=O)C7=O)nc5)ncc34)nn2C2CCOCC2)C1 (stereo not given)	90%	1.6 nM
85%	40%	3.7 nM	–	–	CC(=O)N1CCc2c(c(-c3cccc4cc(-c5ccc(C(=O)N6CCC(C7CN(c8cccc9c8C(=O)N(C8CCC(=O)NC8=O)C9=O)C7)CC6)nc5)ncc34)nn2C2CCOCC2)C1 (stereo not given)	>95%	2.4 nM
86%	25%	1.8 nM	–	–	CC(=O)N1CCc2c(c(-c3cccc4cc(-c5ccc(C(=O)N6CCC(Nc7cccc8c7C(=O)N(C7CCC(=O)NC7=O)C8=O)CC6)nc5)ncc34)nn2C2CCOCC2)C1 (stereo not given)	70%	68 nM
66%	37%	1.7 nM	–	–	CC(=O)N1CCc2c(c(-c3cccc4cc(-c5ccc(C(=O)NCCNc6cccc7c6C(=O)N(C6CCC(=O)NC6=O)C7=O)nc5)ncc34)nn2C2CCOCC2)C1 (stereo not given)	50%	196 nM
70%	77%	1.3 nM	–	0.8 nM	CC(=O)N1CCc2c(c(-c3cccc4cc(-c5ccc(C(=O)NCCCCNc6cccc7c6C(=O)N(C6CCC(=O)NC6=O)C7=O)nc5)ncc34)nn2C2CCOCC2)C1 (stereo not given)	>95%	0.4 nM
99%	87%	0.6 nM	–	0.6 nM	CC(=O)N1CCc2c(c(-c3cccc4cc(-c5ccc(C(=O)NCCCCCCNc6cccc7c6C(=O)N(C6CCC(=O)NC6=O)C7=O)nc5)ncc34)nn2C2CCOCC2)C1 (stereo not given)	80%	0.3 nM
99%	97%	0.6 nM	1.8 nM	–	CC(=O)N1CCc2c(c(-c3cccc4cc(-c5ccc(C(=O)NCCNc6cccc7c6CN(C6CCC(=O)NC6=O)C7=O)nc5)ncc34)nn2C2CCOCC2)C1 (stereo not given)	85%	1.3 nM
99%	97%	0.2 nM	–	1.6 nM	CC(=O)N1CCc2c(c(-c3cccc4cc(-c5ccc(C(=O)NCCCCCCCCNc6cccc7c6C(=O)N(C6CCC(=O)NC6=O)C7=O)nc5)ncc34)nn2C2CCOCC2)C1 (stereo not given)	87%	1.5 nM
99%	99%	0.2 nM	–	1.6 nM	CC(=O)N1CCc2c(c(-c3cccc4cc(-c5ccc(C(=O)N6CCN(c7cccc8c7C(=O)N(C7CCC(=O)NC7=O)C8=O)CC6)nc5)ncc34)nn2C2CCOCC2)C1 (stereo not given)	86%	0.6 nM
98%	95%	0.2 nM	1.8 nM	–	CC(=O)N1CCc2c(c(-c3cccc4cc(-c5ccc(C(=O)NCCCNc6cccc7c6CN(C6CCC(=O)NC6=O)C7=O)nc5)ncc34)nn2C2CCOCC2)C1 (stereo not given)	>95%	0.1 nM
